This is an account of results in ChEMBL document CHEMBL1138174, “Novel HIV-1 integrase inhibitors derived from quinolone antibiotics” (J Med Chem, 2006).

SMILES strings stand for the structures.

Assay [1] deals with Human immunodeficiency virus type 1 integrase (Human immunodeficiency virus 1, UniProt Q7ZJM1). Nature of the assay: Inhibition of recombinant HIV1 integrase strand transfer activity.
The subject of assay [2] is MT4. Nature of the assay: Antiviral activity against HIV1 3b in human MT4 cells. The format is functional, cell-based.
For assay [3], the system named is MT4. Nature of the assay: Cytotoxic activity against human MT4 cells infected with HIV1 by MTT assay. The format is functional.

Chain of Human immunodeficiency virus type 1 integrase (Q7ZJM1 whole entry): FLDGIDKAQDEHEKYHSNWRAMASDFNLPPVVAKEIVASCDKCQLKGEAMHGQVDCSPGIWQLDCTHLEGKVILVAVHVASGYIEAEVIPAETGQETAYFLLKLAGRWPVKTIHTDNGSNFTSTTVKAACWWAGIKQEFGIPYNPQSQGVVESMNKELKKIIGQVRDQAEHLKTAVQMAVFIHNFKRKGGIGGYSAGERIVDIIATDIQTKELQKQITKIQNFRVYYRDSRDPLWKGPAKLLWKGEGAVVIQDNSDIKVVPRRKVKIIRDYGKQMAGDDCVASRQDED

Consider `O=C(O)c1cn(CCO)c2ccc(Cc3cccc(Cl)c3F)cc2c1=O`, for which, in assay [1], the IC50 came to 24.2 nM. The 50% effective concentration (EC50) with MT4 [2] is 76.3 nM. In the assay on MT4 [3], this compound came in with an Activity above 15 µM.

With `COc1cc2c(cc1Cc1cccc(Cl)c1F)c(=O)c(C(=O)O)cn2CCO`, the 50% inhibitory concentration (IC50) in assay [1] stood at 9.1 nM. The half-maximal effective concentration (EC50) in the assay on MT4 [2] stood at 17.1 nM. The compound further displayed an Activity with MT4 [3] of 5.3 µM.

On to `O=C(O)c1c[nH]c2ccc(Cc3cccc(Cl)c3F)cc2c1=O`, for which the IC50 in assay [1] stood at 43.5 nM. For the same compound, the EC50 in the assay with MT4 [2] stood at 805 nM. Besides, the Activity in the assay on MT4 [3] is above 12 µM.

For the compound `O=C(NCc1ccc(F)cc1)c1nc(N2CCCCS2(=O)=O)c2cccnc2c1O`, in assay [1], the 50% inhibitory concentration (IC50) is 22.8 nM. In the assay with MT4 [2], it took 3.6 nM to reach a half-maximal effect (EC50). The compound also displayed an Activity with MT4 [3] of 0.7 µM.

The compound `COc1cc2c(cc1Cc1cccc(Cl)c1F)c(=O)c(C(=O)O)cn2[C@H](CO)C(C)C` gave a 50% effective concentration (EC50) in the assay on MT4 [2] of 0.9 nM. Moreover, the Activity with MT4 [3] came out at 4 µM.

In the assay on MT4 [2], `CC(C)[C@@H](CO)n1cc(C(=O)O)c(=O)c2cc(Cc3cccc(Cl)c3F)ccc21` had an EC50 of 7.5 nM. The same compound returned an Activity with MT4 [3] of 14 µM.

On to `O=C(O)c1cnc2ccc(Cc3ccccc3)cc2c1O`, for which the IC50 in assay [1] worked out at 1600 nM. Moreover, the EC50 in the assay with MT4 [2] is above 30000 nM. For the same compound, the Activity in the assay with MT4 [3] was above 30 µM.
